Reference: US10792232B2, “Methods to deliver antifibrinolytic drugs for anti-aging results” (MURDOCK TECHNOLOGIES, LLC, priority 2016, dated 2020)
Where two headings read alike, the source gives them in different places.

Columns and labels:
[1] = tested on: surface of the face; conditions: 1-2 ml of 10% solution applied daily to the face, over 14-21 days
Description: The present invention is based on the realization that the aging process and its physical effects on the skin and body involve the activation of a fibrinolytic process. […] The dosage of antifibrinolytic agent(s) should be less than 6 grams per day. […] A particularly advantageous manner of administration for topical delivery is by single use pre-impregnated towelettes applied to the area of the skin to be treated.

[2] = cited from earlier work
[3] = tested on: dark patches of skin; conditions: injected directly into affected area, sometimes with laser therapy, melasma patients; cited from earlier work
[4] = tested on: mice that are bred to display skin dryness; conditions: oral, 750 mg/kg/day over 20 days; cited from earlier work

NC[C@H]1CC[C@H](C(=O)O)CC1 [tranexamic acid]
lines and wrinkles [1]: lines and wrinkles are fewer and less pronounced
overall skin tone [1]: improved
dose shown to induce seizures ([2]; equivalent of 80 mg/kg/day): approximately 6 grams per day
dose shown to induce seizures ([2]; in vivo): > 80 mg/kg/day
effect on dark patches of skin [3]: lighten dark patches of skin
effect on wrinkles caused by skin dryness [4]: amelioration effect on wrinkles specifically caused by skin dryness
